Measured values reported in US11413328B2, “Methods for treating inflammatory conditions of the lungs” (priority 2016, dated 2022).

Assays:
[1] = test system: Dextran Sodium Sulphate (DSS) induced colitis model; test: Acute 10-day DSS induced colitis model (Example 7); type: in vivo, mice; conditions: Pred 1 mg/kg orally daily
Procedure: To determine and assess the anti-inflammatory effect of “hBD-2-albumin fusion C-terminal” in an acute 10-day Dextran Sodium Sulphate (DSS) induced colitis model in mice.
“hBD-2-albumin C-terminal” was administered intravenously via the tail vein or subcutaneously with the use of a sterile 25G needle in a dosing volume of 10 ml/kg body weight. The animals received 1 dose daily for 10 […] days. The active control Prednisolone (Pred) was given orally by gavage at a dose of 1 mg/kg in a dosing volume of 10 ml/kg body weight OD.

[2] = test system: murine house dust mite/Freunds complete adjuvant driven model of allergic asthma; test: Total and differential cell counts in BALF, HDM asthma model (Example 2); type: in vivo, BALB/c mice; conditions: dexamethasone orally 1 mg/kg BID day 14; 48 hours post challenge
Procedure: Female 7-10 weeks old BALB/c mice were randomly allocated into 7 study groups one day prior to study start and subcutaneously (SC) sensitized to house dust mite (100 μg HDM in 200 μL saline plus Freunds complete adjuvant in 0.9% saline). Mice were then intranasally (IN) challenged with HDM on day 14 (HDM 25 μg in 50 μL of saline). […] The initial dose was administered 60 minutes prior to challenge, and the subsequent doses approximately 6 hours apart. Airway inflammation: At 48 hours post challenge, bronchoalveolar lavage was performed washing the lungs with 3 volumes of cold PBS (0.4; 0.3 and 0.3 mL, total 1 mL). Total and differential leucocyte cell counts were determined on an automated haematological analyser Sysmex XT-2000iV.

[3] = test system: microbiota of the intestine; test: 16S microbiota analysis, interventional defensin treatment in diet-induced obese mice (Example 11); type: in vivo; conditions: intervention
Text: The experiment elucidates the effect of hBD2 and HD5 on the microbiota in diet-induced obese mice. A run-in period of 13 weeks where mice were fed a very HFD (60% energy from fat) preceded the intervention. Only mice meeting the criteria of a minimum of 12 gram weight gain (approximately 50% of initial bodyweight) during the run-in period were included in the final analyses. […] They were exposed to all experimental tests, but excluded from the analyses.
Before the intervention all mice were MR scanned. Cages of mice were allocated to experimental groups based on their fat mass. All subsequent measures were paired with data from the same mouse before the intervention. A LFD (low fat diet) reference group was running in parallel. As controls for the intervention 2 additional groups were included: 1 very HFD and 1 LFD. Experimental mice stayed on the very HFD during the intervention. The mice were on the experimental diet for 10 weeks. They were co-housed throughout the experiment, 4 mice per cage, 3 cages per group. All tests ran over 3 days, 1 cage per group per day.
Microbial analyses were carried out to study the microbiota of the intestine. Longitudinal 16S characterization was conducted on 4 paired samples from 60 mice, 240 samples in total. Each mouse was sampled prior to diet change, 1 week post diet change, 4 weeks post diet change and at termination, thus ensuring a thorough characterization of the faecal microbiota as a result of defensin treatment.

[4] = test system: microbiota of the intestine; test: 16S microbiota analysis, prophylactic defensin treatment in high fat diet model (Example 10); type: in vivo, mice
Text: Mice were housed in trios, 4 cages per group. Feed intake was registered daily just before lights were turned off at […]. Individual mice were subjected to experimental procedures in altered order both group and cage wise. Mice were kept at room temperature under a 12-hour light/dark cycle at SPF standard conditions. The treatment regime is described in FIG. 38. Mice were fed either a high fat diet (HFD) or a low fat (LF) control diet. The HFD contained 4 subgroups; 1 hBD2, 1 HD5, 1 hBD2/HD5 and 1 standard HFD without supplementation of defensins. Defensin concentration was 1.2 mg hBD2 per kg mouse per day. HD5 was given in equimolar concentration to hBD2. […] Microbial analyses were carried out to study the microbiota of the intestine. Longitudinal 16S characterization was conducted on 4 paired samples from 60 mice, 240 samples in total. Each mouse was sampled prior to diet change, 1 week post diet change, 4 weeks post diet change and at termination, thus ensuring a thorough characterization of the faecal microbiota as a result of defensin treatment.

## C[C@]12C=CC(=O)C=C1CC[C@@H]1[C@@H]2[C@@H](O)C[C@@]2(C)[C@H]1CC[C@]2(O)C(=O)CO [Pred, Prednisolone]
[1]
  histological injury, proximal part of the colon: failed to significantly reduce
[1]; day 9, p<0.05
  DAI: significant inhibition
[1]; p<0.01
  histological injury, distal colon: did reduce

## C[C@@H]1C[C@H]2[C@@H]3CCC4=CC(=O)C=C[C@]4(C)[C@@]3(F)[C@@H](O)C[C@]2(C)[C@@]1(O)C(=O)CO [Dexamethasone, reference compound]
[2]
  neutrophil count in BALF: failed to inhibit

## human intestinal alpha defensin 5 (ATCYCRTGRCATRESLSGVCEISGRLYRLCCR; listed as Homo sapiens) [HD5]
[3]; HD5 p<0.02
  abundance of Alloprevotella in the colon: increased the abundance of Alloprevotella statistically significantly
[3]; hBD2 p<0.0001
  relative abundance of Bifidobacteriaceae in the small intestine: trend towards HD5 increasing the abundance
[4]; 1.2 mg hBD2 per kg per day in feed, HD5 equimolar, combination 50% + 50%
  effect on microbial presence / microbial abundance: affected primarily the microbial abundance
[4]; prophylaxis, p<0.02
  abundance of Allobaculum in the small intestine: statistically significant increase
